# According to US8022215B2, “Fused pyridone M1 receptor positive allosteric modulators” (Merck Sharp & Dohme Corp., priority 2008, dated 2011):
# Biological target: T1, acetylcholine muscarinic M1 receptor (Homo sapiens, UniProt P11229)
# T1 construct: expressed in transfected cells; host or cells: CHOnfat (CHO cells, Geneticin selection)
# T1 sequence (P11229 1-460): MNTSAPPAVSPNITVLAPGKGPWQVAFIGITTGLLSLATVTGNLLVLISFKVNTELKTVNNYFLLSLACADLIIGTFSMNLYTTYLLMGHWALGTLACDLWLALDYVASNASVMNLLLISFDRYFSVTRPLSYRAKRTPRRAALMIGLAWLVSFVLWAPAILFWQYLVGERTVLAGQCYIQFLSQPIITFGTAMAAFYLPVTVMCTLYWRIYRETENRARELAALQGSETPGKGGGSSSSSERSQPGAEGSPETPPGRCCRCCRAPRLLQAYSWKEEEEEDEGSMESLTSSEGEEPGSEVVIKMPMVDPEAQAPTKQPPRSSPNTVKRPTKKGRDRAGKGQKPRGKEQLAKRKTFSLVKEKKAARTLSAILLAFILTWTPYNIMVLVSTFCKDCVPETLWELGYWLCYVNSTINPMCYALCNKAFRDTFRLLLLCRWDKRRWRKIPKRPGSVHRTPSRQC
# Assay: muscarinic FLIPR assay: potentiation of acetylcholine (EC20)-stimulated intracellular Ca2+ in CHOnfat/hM1 cells
# Type: cell-based
# Conditions: not given
# Experimental: The assay studies the effect of one or several concentrations of test compounds on basal or acetylcholine-stimulated Ca^2+ levels using FLIPR.
# Compounds are prepared and subjected to a preincubation period of 4 min. Thereafter, a single EC20 concentration of acetylcholine is added to each well (3 nM final). The intracellular Ca^2+ level of each sample is measured and compared to an acetylcholine control to determine any modulatory activity.
# Cells: CHOnfat/hM1, hM2, hM3 or hM4 cells are plated 24 hr before the assay at a density of 18,000 cells/well (100 μL) in a 384 well plate. CHOnfat/hM1 and CHOnfat/hM3 Growth Medium: 90% DMEM (Hi Glucose); 10% HI FBS; 2 mM L-glutamine; 0.1 mM NEAA; Pen-Strep; and 1 mg/ml Geneticin, are added. For M2Gqi5CHOnfat and M4Gqi5CHOnfat cells, an additional 600 μg/ml hygromycin is added.
# Buffers. […] Dye Loading Buffer: Assay Buffer plus 1% Fetal Bovine Serum and Fluo-4AM/Pluronic Acid Mixture. […] 20% Pluronic Acid Solution stock, with a concentration of 0.04% in Buffer, 0.02% in Assay.
# 65 μL of 2 mM Fluo-4AM are mixed with 130 μL of 20% Pluronic Acid. The resulting solution and 650 μL FBS is added to the assay buffer for a total volume of 65 mL. Positive Controls: 4-Br-A23187: 10 mM in DMSO; final concentration 10 μM. Acetylcholine: 10 mM in water, working stock at both 20 μM and 30 μM in assay buffer, final concentration of 10 μM. This is used to check the maximum stimulation of the CHOK1/hM1 cells. 20 μM (2×) acetylcholine is added in the preincubation part of the assay, and the 30 μM (3×) stock is added in the second part. (EC20)Acetylcholine: 10 mM in water, working stock of 9 nM (3×), and final concentration in assay is 3 nM. This is used after the preincubation with test compounds. Addition of the EC20 acetylcholine to each well with a test compound will ascertain any modulator activity. 24 wells contain 3 nM acetylcholine alone as a control.
# Determining Activity of Putative Compounds:
# Four 96-well plates are combined into a 384-well plate using Mosquito Nanolitre Pipetting System by transferring 1 μl of serial diluted compounds to each well, and 1 mM acetylcholine (100× stock concentration) were added as a control. Using Temo, 49 μl assay buffer is added to each well of the 384-well plate right before assay.
# In a 96-well Whatman 2 ml Uniplate, 9 nM acetylcholine (3×) is pipetted into wells corresponding to the screening compounds and into control wells. The 30 μM acetylcholine control (3×) is added into control wells and the 3× agonist plate is transferred into a 384-well plate.
# Cells are washed three times with 100 μL of buffer, leaving 30 μL of buffer in each well. Using Multimek, 30 μL of Dye Loading Buffer is added into each well and incubated at 37° C., 5% CO2 for up to one hr.
# After 60 min, the cells are washed three times with 100 μL of buffer, leaving 30 μL of buffer in each well. The cell plate, screening plate, and agonist addition plates are placed on the platform in the FLIPR and the door is closed. A signal test to check background fluorescence and basal fluorescence signal is performed. Laser intensity is adjusted if necessary.
# 4 min of preincubation with the test compounds is provided to determine any agonist activity on the M1 receptor by comparison to the 1 mM acetylcholine control. After preincubation, the EC20 value of acetylcholine (3 nM final) is added to determine any modulator activity.
# The inflection point is calculated from the FLIPR values and is a measure of activity.
row,Compound,EC50 [µM]
1,"COc1ccccc1-c1ccc(Cn2cc(C(=O)O)c(=O)c3c2CCCC3O)cc1 (racemic) [Example 27, (±)-5-Hydroxy-1-[(2′-methoxybiphenyl-4-yl)methyl]-4-oxo-1,4,5,6,7,8-hexahydroquinoline-3carboxylic acid]",3.14
2,"COC1CCCc2c1c(=O)c(C(=O)O)cn2Cc1ccc(-c2ccccc2)cc1 (racemic) [Example 62, (±)-1-(Biphenyl-4-ylmethyl)-5-methoxy-4-oxo-1,4,5,6,7,8-hexahydroquinoline-3-carboxylic acid]",1.1
3,"O=C(O)c1cn(Cc2ccc(-c3ccccc3)cc2)c2c(c1=O)CCC2 [Example 1, 1-(Biphenyl-4-ylmethyl)-4-oxo-4,5,6,7-tetrahydro-1H-cyclopenta[b]pyridine-3-carboxylic acid]",0.812
4,"O=C(O)c1cn(C/C=C/c2ccccc2F)c2c(c1=O)C(=O)CCC2 [Example 15, 1-[(2E)-3-(2-Fluorophenyl)prop-2-en-1-yl]-4,5-dioxo-1,4,5,6,7,8-hexahydroquinoline-3-carboxylic acid]",64
5,N#Cc1ccc(-c2ccc(Cn3cc(C(=O)O)c(=O)c4c3CCCC4O)cc2)cc1 (stereo not shown) [Example 41],0.318
6,COc1ccc(-c2ccc(Cn3cc(C(=O)O)c(=O)c4c3CCCC4O)cc2)cn1 (stereo not shown) [Example 53],0.323
7,CNC1CCCc2c1c(=O)c(C(=O)O)cn2Cc1ccc(-c2ccccc2)cc1 (stereo not shown) [Example 70],8.37

# Now from value to molecule:
row,EC50 [µM],Compound
1,9.05,"CCC1(O)CCCc2c1c(=O)c(C(=O)O)cn2Cc1ccc(-c2ccccc2)cc1 (racemic) [Example 68, (±)-1-(Biphenyl-4-ylmethyl)-5-ethyl-5-hydroxy-4-oxo-1,4,5,6,7,8-hexahydroquinoline-3-carboxylic acid]"
2,0.199,Cn1ccc2cc(-c3ccc(Cn4cc(C(=O)O)c(=O)c5c4CCCC5O)nc3)ccc21 (stereo not shown) [Example 66]
3,1.5,CCCCNC1CCCc2c1c(=O)c(C(=O)O)cn2Cc1ccc(-c2ccccc2)cc1 (stereo not shown) [Example 71]
4,2.2,O=C(O)c1cn(Cc2ccc(-c3ccccc3)cc2)c2c(c1=O)C(NCc1ccccc1)CCC2 (stereo not shown) [Example 72]
5,4.1,O=C(O)c1cn(Cc2ccc(-c3ccccc3)cc2)c2c(c1=O)C(N1CCCC1)CCC2 (stereo not shown) [Example 73]

# Same assay, conditions: CHOnfat/hM1 cells, FLIPR, 4 min preincubation, then EC20 acetylcholine (3 nM final); read-out: IP Value (inflection point)
row,Compound,EC50 [µM]
1,O=C(O)c1cn(Cc2ccc(-c3ccccc3)cc2)c2c(c1=O)C(=O)CCC2 [Example 6],0.806
